Experimental data: patent US20050215551A1, “1-[2H-1-benzopyran-2-one-8-yl]- piperazine derivatives for the treatment of movement disorders” (SOLVAY PHARMACEUTICALS B.V., priority 2004, published 2005)

What was measured:
Prostaglandin-H2 = Prostaglandin-H2 (Homo sapiens, UniProt P21731); assay: Receptor binding Prostaglandin-H2; conditions: radioligand [3H]-SQ 29548, read-out: Ki(nM) Compound 1
Procedure: (§1) Receptor binding data were obtained by CEREP (128, rue Danton, 92500 Rueil-Malmaison, France) or at Solvay Pharmaceuticals B.V., using well documented standard procedures. Affinity for 5-HT1A receptors for instance, was determined by testing the ability of the compounds of the invention to displace [^3H]-2-(di-n-propylamino)-8-hydroxytetralin ([^3H]-8-OH-DPAT) from its specific binding sites in rat frontal cortex homogenates. This test is based on the method described by Gozlan et al. (Nature, 305, (1983), pages 140-142).
(§2) The binding data collected in the table below were either obtained by CEREP (128, rue Danton, 92500 Rueil-Malmaison, France) or at Solvay Pharmaceuticals B.V., using well documented standard procedures.

Vasopressine-V1A = Vasopressine-V1A (Homo sapiens, UniProt P37288); assay: Receptor binding Vasopressine-V1A; conditions: radioligand [3H]-vasopressine, read-out: Ki(nM) Compound 1
Chain of Vasopressine-V1A (P37288 whole entry): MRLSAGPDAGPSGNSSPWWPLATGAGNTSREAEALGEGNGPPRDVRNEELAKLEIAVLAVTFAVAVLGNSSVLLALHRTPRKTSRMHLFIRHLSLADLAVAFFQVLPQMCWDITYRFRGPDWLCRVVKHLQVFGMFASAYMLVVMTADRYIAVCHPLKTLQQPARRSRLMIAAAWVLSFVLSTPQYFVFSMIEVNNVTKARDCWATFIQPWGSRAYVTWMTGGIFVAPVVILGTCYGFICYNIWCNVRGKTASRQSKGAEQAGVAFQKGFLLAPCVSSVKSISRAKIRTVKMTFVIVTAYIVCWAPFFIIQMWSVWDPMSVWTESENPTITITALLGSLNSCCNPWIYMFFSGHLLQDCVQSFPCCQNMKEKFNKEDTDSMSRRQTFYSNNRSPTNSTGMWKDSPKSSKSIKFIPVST
Procedure: as §1, §2

Galanin-GAL2 = Galanin-GAL2 (Homo sapiens, UniProt O43603); assay: Receptor binding Galanin-GAL2; conditions: radioligand [125I]-galanin, read-out: Ki(nM) Compound 1
Chain of Galanin-GAL2 (O43603 whole entry): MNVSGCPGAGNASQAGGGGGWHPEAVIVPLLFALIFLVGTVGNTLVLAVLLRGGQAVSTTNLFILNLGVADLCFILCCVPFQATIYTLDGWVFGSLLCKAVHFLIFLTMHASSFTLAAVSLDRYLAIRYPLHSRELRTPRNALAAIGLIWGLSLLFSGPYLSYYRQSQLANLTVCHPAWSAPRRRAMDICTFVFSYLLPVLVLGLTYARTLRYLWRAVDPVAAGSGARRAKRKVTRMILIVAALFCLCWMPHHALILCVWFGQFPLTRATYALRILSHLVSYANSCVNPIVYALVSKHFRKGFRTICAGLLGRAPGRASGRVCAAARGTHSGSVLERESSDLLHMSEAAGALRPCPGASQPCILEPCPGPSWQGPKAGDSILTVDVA
Procedure: as §1, §2

NAreuptake = NAreuptake (Homo sapiens, UniProt P23975); assay: Binding NA reuptake; conditions: radioligand [3H]-nisoxetin, read-out: Ki(nM) Compound 1
Chain of NAreuptake (P23975 whole entry): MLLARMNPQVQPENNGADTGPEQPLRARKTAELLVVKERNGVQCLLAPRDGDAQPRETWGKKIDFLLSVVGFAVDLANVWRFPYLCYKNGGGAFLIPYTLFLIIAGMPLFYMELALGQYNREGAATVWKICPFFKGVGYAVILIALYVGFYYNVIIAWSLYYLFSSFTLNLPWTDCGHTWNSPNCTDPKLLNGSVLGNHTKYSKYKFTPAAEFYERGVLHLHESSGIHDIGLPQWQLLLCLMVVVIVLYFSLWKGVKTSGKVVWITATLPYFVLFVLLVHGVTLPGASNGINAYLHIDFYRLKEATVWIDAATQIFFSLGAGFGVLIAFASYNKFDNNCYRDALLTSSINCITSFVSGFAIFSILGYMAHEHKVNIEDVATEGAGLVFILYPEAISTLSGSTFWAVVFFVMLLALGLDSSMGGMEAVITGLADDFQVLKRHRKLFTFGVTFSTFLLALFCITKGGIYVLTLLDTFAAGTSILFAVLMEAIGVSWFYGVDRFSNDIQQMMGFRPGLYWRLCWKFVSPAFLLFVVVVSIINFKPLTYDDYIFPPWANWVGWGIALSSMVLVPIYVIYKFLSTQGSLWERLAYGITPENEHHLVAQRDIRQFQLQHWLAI
Procedure: as §1, §2

5-HT5 = 5-HT5 (Homo sapiens, UniProt P47898); assay: Receptor binding 5-HT5; conditions: radioligand [3H]-LSD, read-out: Ki(nM) Compound 1
Chain of 5-HT5 (P47898 whole entry): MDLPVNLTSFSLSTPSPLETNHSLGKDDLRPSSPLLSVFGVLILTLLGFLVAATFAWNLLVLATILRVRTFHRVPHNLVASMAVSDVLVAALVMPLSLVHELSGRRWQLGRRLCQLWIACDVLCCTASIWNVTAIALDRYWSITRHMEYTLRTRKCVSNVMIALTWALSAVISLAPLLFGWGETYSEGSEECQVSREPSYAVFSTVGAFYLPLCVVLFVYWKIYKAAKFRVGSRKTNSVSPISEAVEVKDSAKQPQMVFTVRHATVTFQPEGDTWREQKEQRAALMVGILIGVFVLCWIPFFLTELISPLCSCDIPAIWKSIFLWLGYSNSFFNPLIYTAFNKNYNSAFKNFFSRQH
Procedure: as §1, §2

5-HT2C = 5-HT2C (Homo sapiens, UniProt P28335); assay: Receptor binding 5-HT2C; conditions: radioligand [125I]-DOI, read-out: Ki(nM) Compound 1
Chain of 5-HT2C (P28335 33-458): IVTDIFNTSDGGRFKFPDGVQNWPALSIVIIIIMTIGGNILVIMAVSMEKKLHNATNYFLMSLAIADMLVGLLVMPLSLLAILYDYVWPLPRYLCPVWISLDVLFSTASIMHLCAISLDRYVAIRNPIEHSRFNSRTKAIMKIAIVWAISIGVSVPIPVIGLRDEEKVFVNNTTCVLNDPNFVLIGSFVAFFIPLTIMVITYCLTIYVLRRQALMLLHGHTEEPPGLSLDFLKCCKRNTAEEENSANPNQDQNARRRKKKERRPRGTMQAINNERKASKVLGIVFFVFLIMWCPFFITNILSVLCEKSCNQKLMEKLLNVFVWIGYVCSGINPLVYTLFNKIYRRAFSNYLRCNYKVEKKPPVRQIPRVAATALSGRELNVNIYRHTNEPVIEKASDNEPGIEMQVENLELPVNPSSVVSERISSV
Procedure: as §1, §2

PACAP = PACAP (Rattus norvegicus, UniProt P32215); assay: Receptor binding PACAP; conditions: radioligand [125I]-PACAP 1-27, read-out: Ki(nM) Compound 1
Chain of PACAP (P32215 20-523): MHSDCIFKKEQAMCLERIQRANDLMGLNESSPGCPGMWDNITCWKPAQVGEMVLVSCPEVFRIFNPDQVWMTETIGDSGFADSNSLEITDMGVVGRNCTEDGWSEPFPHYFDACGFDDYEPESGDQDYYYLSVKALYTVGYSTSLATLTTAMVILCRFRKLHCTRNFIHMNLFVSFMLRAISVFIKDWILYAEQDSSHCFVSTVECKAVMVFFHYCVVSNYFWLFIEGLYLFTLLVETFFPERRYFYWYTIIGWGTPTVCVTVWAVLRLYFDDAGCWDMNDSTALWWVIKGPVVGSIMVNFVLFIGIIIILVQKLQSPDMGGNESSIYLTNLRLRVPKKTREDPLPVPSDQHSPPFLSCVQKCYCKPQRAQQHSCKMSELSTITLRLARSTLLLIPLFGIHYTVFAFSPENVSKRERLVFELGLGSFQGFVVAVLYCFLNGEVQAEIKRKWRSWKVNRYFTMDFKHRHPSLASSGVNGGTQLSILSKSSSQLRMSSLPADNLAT
Procedure: as §1, §2

Glycine strychn. insens. = Glycine strychn. insens. (Rattus norvegicus, UniProt P35439); assay: Receptor binding Glycine strychn. insens.; conditions: radioligand [3H]-MDL105519, read-out: Ki(nM) Compound 1
Procedure: as §1, §2

GDNF = assay: Induction of growth factors: GDNF RNA in brain areas by quantitative PCR; format: in vivo; conditions: 3 mg/kg p.o. once daily, 3 weeks
Procedure: Compounds of the invention (3 mg/kg, p.o.) or vehicle are administered once daily during a period of 3 weeks (n=8 animals per treatment group). 24 hours after the last dose the animals are sacrificed (using CO2/O2 anesthesia), the brains are removed and the dissected. RNA is extracted from the individual brain samples and induction of the growth factors BDNF and GDNF is determined by quantitative PCR. Total RNA is isolated with the Trizol method (Invitrogen) from the brain pieces. cDNA is made starting with 2 μg of total RNA (pretreated for 30 min with DNAse (Ambion) in first strand buffer) using the reverse transcriptase Superscript II (Invitrogen). Quantification of […] by real time PCR makes use of the observation that the early cycles of PCR are characterized by an exponential increase in target amplification. The accumulation of PCR product is measured using Sybergreen II. Primers are designed using the software package Primer Express (Applied Biosystems). Expression levels of the housekeeping genes ornithine decarboxylase (ODC_ex8) and alpha tubulin (TUBA) used for normalization and as control for good cDNA synthesis.

Muscarine-M2 = Muscarine-M2 (Homo sapiens, UniProt P08172); assay: Receptor binding Muscarine-M2; conditions: radioligand [3H]-AFDX-384, read-out: Ki(nM) Compound 1
Chain of Muscarine-M2 (P08172 whole entry): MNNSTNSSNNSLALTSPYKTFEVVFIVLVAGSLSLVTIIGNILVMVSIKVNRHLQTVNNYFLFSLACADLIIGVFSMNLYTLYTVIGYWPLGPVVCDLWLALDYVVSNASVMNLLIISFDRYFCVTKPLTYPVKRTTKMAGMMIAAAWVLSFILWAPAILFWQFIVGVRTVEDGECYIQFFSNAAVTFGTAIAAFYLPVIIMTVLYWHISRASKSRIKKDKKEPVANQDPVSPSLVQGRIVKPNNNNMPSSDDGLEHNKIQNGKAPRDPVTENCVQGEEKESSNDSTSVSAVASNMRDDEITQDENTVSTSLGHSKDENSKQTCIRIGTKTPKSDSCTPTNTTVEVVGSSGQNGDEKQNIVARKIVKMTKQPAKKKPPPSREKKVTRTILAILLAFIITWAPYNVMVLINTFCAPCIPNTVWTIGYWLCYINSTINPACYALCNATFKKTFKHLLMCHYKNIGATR
Procedure: as §1, §2

DBA/2 mice = assay: Interaction studies in DBA/2 mice: Compound 1 + vehicle, sumatriptan or SB 258741 (audiogenic seizures); format: in vivo; conditions: for Percentage of animal response, Clonic seizures / Percentage of animal response, Tonic extension: 30 min
Procedure: The experiments are performed according to the method previously described by De Sarro et al. (1984), Eur. J. Pharmacol., 104, 55-60. Compounds of the invention or vehicle (controls) are given intraperitoneally (i.p.) and orally (p.o.) as freshly sonicated solutions in methylcellulose 1%. For the i.p. treatment compounds of the invention are given at doses of 0.1, 0.3, 3, 10, 15, 20 and 30 mg/kg; pretreatment time at 30 and 60 min., For oral treatment, all animals are pretreated either at 30 or 60 min using the compounds of the invention at doses of 0.1, 0.3, 3, 6 and 10 mg/kg p.o. At least 10 mice per dose are used. After pretreatment time, each mouse is placed under a hemispheric perspex dome (58 cm in diameter) and 1 min is allowed for habituation and assessment of locomotor activity. Animals are challenged with a 12-16 kHz sinusoidal tone at 109 dB. Seizure response is assessed by two independent observers. The sound evoked behaviour is coded using the following scale: 0=no response, 1=wild running, 2=clonus, 3=tonic flexor and/or extensor; 4=respiratory arrest, on the basis of the concordant opinion of the observers. […] The maximum response is recorded for each animal. Rectal temperature is recorded immediately prior to auditory testing using an Elektrolaboratoriet thermometer type T.E.3. Behavioral changes are observed during the period between drug administration and auditory testing. In these experiments separate vehicle-treated and drug-treated groups are used at each pretreatment time (15 min-60 min). Percentage of mice showing wild running, clonic or tonic phase and the duration of anticonvulsant activity are compared to control group and statistically analyzed.

5-HT7 = 5-HT7 (Homo sapiens, UniProt P34969); assay: Receptor binding 5-HT7; conditions: radioligand [3H]-LSD, read-out: Ki(nM) Compound 1
Chain of 5-HT7 (P34969 whole entry): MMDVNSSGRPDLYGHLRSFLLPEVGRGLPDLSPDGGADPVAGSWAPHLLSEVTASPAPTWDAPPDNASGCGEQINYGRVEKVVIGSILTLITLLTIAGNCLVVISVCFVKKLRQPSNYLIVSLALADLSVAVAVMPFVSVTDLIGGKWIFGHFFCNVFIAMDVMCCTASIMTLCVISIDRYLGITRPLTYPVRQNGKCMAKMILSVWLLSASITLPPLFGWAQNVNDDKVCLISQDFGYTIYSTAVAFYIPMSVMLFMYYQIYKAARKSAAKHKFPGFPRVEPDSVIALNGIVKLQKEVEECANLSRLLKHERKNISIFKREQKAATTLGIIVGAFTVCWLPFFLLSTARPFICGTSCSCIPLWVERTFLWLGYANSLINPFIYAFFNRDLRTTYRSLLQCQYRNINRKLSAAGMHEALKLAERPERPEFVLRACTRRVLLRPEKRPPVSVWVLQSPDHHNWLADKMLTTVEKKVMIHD
Procedure: as §1, §2

CGRP = CGRP (Homo sapiens, UniProt O60894+Q16602); assay: Receptor binding CGRP; conditions: radioligand [125I]-CGRPa, read-out: Ki(nM) Compound 1
Chain of CGRP (Q16602 23-461): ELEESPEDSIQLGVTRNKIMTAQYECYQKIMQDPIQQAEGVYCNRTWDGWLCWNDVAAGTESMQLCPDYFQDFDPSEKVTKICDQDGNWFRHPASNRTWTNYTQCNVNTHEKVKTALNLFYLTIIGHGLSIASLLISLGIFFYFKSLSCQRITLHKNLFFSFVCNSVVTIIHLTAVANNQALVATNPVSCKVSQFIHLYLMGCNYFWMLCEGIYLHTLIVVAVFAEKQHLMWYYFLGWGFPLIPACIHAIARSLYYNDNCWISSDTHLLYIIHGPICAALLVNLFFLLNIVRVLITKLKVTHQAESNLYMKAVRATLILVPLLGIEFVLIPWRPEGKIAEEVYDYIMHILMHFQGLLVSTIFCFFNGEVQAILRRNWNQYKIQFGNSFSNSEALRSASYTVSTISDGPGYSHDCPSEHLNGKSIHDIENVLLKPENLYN
Chain of CGRP (O60894 27-148): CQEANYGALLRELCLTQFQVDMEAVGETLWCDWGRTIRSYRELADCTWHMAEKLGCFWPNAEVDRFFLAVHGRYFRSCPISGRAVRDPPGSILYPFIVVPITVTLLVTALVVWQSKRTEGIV
Procedure: as §1, §2

nociceptin (ORL1) = nociceptin (ORL1) (Homo sapiens, UniProt P41146); assay: Receptor binding nociceptin (ORL1); conditions: radioligand [3H]-nociceptine, read-out: Ki(nM) Compound 1
Chain of nociceptin (ORL1) (P41146 whole entry): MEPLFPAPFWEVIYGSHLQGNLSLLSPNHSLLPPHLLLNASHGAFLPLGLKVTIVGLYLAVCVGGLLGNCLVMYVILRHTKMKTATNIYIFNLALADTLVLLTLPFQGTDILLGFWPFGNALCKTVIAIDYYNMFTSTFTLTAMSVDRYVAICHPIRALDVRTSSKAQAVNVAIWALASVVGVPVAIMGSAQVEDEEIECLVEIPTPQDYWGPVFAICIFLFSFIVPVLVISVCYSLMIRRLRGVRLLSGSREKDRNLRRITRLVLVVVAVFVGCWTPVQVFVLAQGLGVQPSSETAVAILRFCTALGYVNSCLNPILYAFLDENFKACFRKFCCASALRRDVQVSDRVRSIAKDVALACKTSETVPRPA
Procedure: as §1, §2

Neurokinin-NK2 = Neurokinin-NK2 (Homo sapiens, UniProt P21452); assay: Receptor binding Neurokinin-NK2; conditions: radioligand [125I]-neurokininA, read-out: Ki(nM) Compound 1
Procedure: as §1, §2

[1] = dose of Compound 1 0.3 mg/kg i.p.
[2] = dose of Compound 1 3 mg/kg i.p.
[3] = dose of Compound 1 10 mg/kg i.p.
[4] = dose of Compound 1 15 mg/kg i.p.
[5] = dose of Compound 1 20 mg/kg i.p.

Chain of Prostaglandin-H2 (P21731 whole entry): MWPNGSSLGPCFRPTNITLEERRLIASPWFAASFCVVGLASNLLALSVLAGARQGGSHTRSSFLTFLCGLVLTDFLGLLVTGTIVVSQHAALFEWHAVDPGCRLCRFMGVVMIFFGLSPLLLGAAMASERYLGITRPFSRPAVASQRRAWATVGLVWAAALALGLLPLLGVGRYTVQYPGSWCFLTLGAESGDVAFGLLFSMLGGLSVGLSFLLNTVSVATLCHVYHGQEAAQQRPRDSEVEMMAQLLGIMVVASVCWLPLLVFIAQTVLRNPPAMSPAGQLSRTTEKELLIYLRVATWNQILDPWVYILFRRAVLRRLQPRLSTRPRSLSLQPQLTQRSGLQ

Nc1cc2cccc(N3CCNCC3)c2oc1=O [Compound 1, 3-amino-8-(1-piperazinyl)-2H-1-benzopyran-2-one]
Ki (Prostaglandin-H2): > 1000 nM | Ki (Vasopressine-V1A): > 1000 nM | Ki (Galanin-GAL2): > 1000 nM | Ki (NAreuptake): > 1000 nM | Ki (5-HT5): 100 nM | Ki (5-HT2C): > 1000 nM | Ki (PACAP): > 1000 nM | Ki (Glycine strychn. insens.): > 10000 nM | GDNF RNA, fold increase compared to vehicle treatment (GDNF; hippocampus): 1.7 fold | GDNF RNA, fold increase compared to vehicle treatment (GDNF; nucleus accumbens): 1.5 fold | GDNF RNA, fold increase compared to vehicle treatment (GDNF; prefrontal cortex): 1.3 fold | GDNF RNA, fold increase compared to vehicle treatment (GDNF; striatum): 2.2 fold | GDNF RNA, fold increase compared to vehicle treatment (GDNF; thalamus): 2.6 fold | Ki (Muscarine-M2): > 1000 nM | Percentage of animal response, Clonic seizures (DBA/2 mice; [1]): 90% | Percentage of animal response, Tonic extension (DBA/2 mice; [1]): 60% | Percentage of animal response, Clonic seizures (DBA/2 mice; [2]): 80% | Percentage of animal response, Tonic extension (DBA/2 mice; [2]): 40% | Percentage of animal response, Clonic seizures (DBA/2 mice; [3]): 40% | Percentage of animal response, Tonic extension (DBA/2 mice; [3]): 0% | Percentage of animal response, Clonic seizures (DBA/2 mice; [4]): 20% | Percentage of animal response, Tonic extension (DBA/2 mice; [4]): 0% | Percentage of animal response, Clonic seizures (DBA/2 mice; [5]): 10% | Percentage of animal response, Tonic extension (DBA/2 mice; [5]): 0% | behavioural changes (DBA/2 mice; i.p., all dosages tested): At none of the dosages tested | Ki (5-HT7): 3.2 nM | Ki (CGRP): > 1000 nM | Ki (nociceptin (ORL1)): > 1000 nM | Ki (Neurokinin-NK2): > 1000 nM
